Values quoted from earlier work as cited in US10646533B2, “Absorption enhancer for polyphenol” (priority 2015, dated 2020).
Where two headings read alike, the source gives them in different places.

What was measured:
[1] = orally ingested, rat
[2] = orally ingested, human

- migration rate into blood [1]: about 2%
- migration rate into blood [2]: about 2%
Structure (SMILES): O=C(O[C@@H]1Cc2c(O)cc(O)cc2O[C@@H]1c1cc(O)c(O)c(O)c1)c1cc(O)c(O)c(O)c1 [epigallocatechin gallate]
